Like-named read-outs stand apart in the source and are kept apart here.
Experiments:
rat = settings: cited from earlier work
[1] = High-throughput Adh activity assay in E. coli cell lysates; format: biochemical; settings: reduction of isovaleraldehyde to isopentanol; secondary screen
Description: Cell growth and enzyme preparation. Strains harboring library plasmids were transformed into an E. coli T7 expression host. 5 μL/well of thawed glycerol stocks were stamped into 500 μL/well of LB+100 ug/mL Carbenicillin (LB-Carb100) in half-height deepwell plates, which were sealed with AeraSeals. Samples were incubated at 37° C. and shaken at 1000 RPM in 80% humidity overnight. 50 μL/well of the resulting precultures were stamped into 450 μL/well of LB-Carb100+1 mM IPTG in half-height deepwell plates, which were sealed with AeraSeals. Samples were incubated at 30° C. and shaken at 1000 RPM in 80% humidity overnight. […]
10 uL of lysate was transferred to a half-area flat-bottom plate containing 90 uL/well assay buffer (50 mM MOPS buffer, 0.4 mM NADH, and 30 mM isovaleraldehyde, pH 7.0). Optical absorbance measurements were taken on a plate reader at 340 nm for 10 minutes. […]
To screen the 3×˜1300-member enzyme libraries, high-throughput methods were developed to screen for LeuDH, KivD, and Adh enzyme activities in E. coli cell lysates. […] Cells were lysed, and enzyme activity was measured in cell lysates using enzyme-specific spectrophotometric assays described above in the method section. […]
For each enzyme family, the full library (˜1300 members each) was measured in biological duplicate, and hits were selected based on the highest activity in a single replicate for each enzyme. […]

CC(C)C(=O)O [Isobutyric acid]
Oral LD50 (rat) (rat; oral): 2230 mg/kg

CCC(C)C=O (stereo not drawn) [2-methylbutyraldehyde]
Oral LD50 (rat) (rat; oral): 6884 mg/kg

CC(C)CO [Isobutanol]
Oral LD50 (rat) (rat; oral): 3350 mg/kg
Oral NOAEL* (rat) (No-Observed-Adverse-Effect) (rat; oral): >1450 mg/kg/day

CCC(C)CO (stereo not drawn) [2-methylbutanol]
Oral LD50 (rat) (rat; oral): 4170 mg/kg

CC(C)CCO [Isopentanol]
Oral NOAEL* (rat) (No-Observed-Adverse-Effect) (rat; in vivo, po): 1250 mg/kg/day
Oral LD50 (rat) (rat; oral): >5000 mg/kg

CC(C)CC=O [Isovaleraldehyde]
Oral LD50 (rat) (rat; oral): 5740 mg/kg

B1: ADH2 enzyme from S. cerevisiae: parent alcohol dehydrogenase ADH2 from S. cerevisiae (protein, UniProt P00331 2-348, looked up)
Alcohol dehydrogenase 2: SIPETQKAIIFYESNGKLEHKDIPVPKPKPNELLINVKYSGVCHTDLHAWHGDWPLPTKLPLVGGHEGAGVVVGMGENVKGWKIGDYAGIKWLNGSCMACEYCELGNESNCPHADLSGYTHDGSFQEYATADAVQAAHIPQGTDLAEVAPILCAGITVYKALKSANLRAGHWAAISGAAGGLGSLAVQYAKAMGYRVLGIDGGPGKEELFTSLGGEVFIDFTKEKDIVSAVVKATNGGAHGIINVSVSEAAIEASTRYCRANGTVVLVGLPAGAKCSSDVFNHVVKSISIVGSYVGNRADTREALDFFARGLVKSPIKVVGLSSLPEIYEKMEKGQIAGRYVVDTSK
increase in Adh activity relative to the background lysate activity [1]: did not exhibit activity greater than the background lysate alcohol dehydrogenase activity
